From patent US10532052B2, “Combination of a 6-oxo-1,6-dihydro-pyridazine derivative having anti-cancer activity with an EGFR inhibitor” (Merck Patent GmbH, priority 2014, dated 2020)

Tests used:
[1] = test system: human DFCI081 NSCLC xenograft; experiment: human DFCI081 patient derived NSCLC xenograft (PDX) model; format: in vivo; settings: for tumor response class / median tumor volume (TV) change: female NCr nude mice; for tumor response class: 100 mg/kg each agent orally daily up to 18 days; for median tumor volume (TV) change: s.c. DFCI081 tumors, 100 mg/kg orally daily up to 18 days
Method: Method: Female NCr nude mice (7 weeks old) where subcutaneously injected with human DFCI081 tumor cells and were divided into treatment groups (10 animals per group) after the tumors were established. […] Median tumor volume (TV) change in % were calculated and statistical analysis done with two way-RM ANOVA.

[2] = test system: human NSCLC HCC827-GR-T790M xenograft; format: in vivo; settings: female NCr nude mice, 100 mg/kg each agent orally daily, day 14
Experimental: Background: The human NSCLC HCC827-GR-T790M is a EGFR del 19 mutant and c-Met amplified lung xenograft model which exogenous expression of the EGFR T790M resistant mutation.
Method: Female NCr nude mice (7 weeks old) where subcutaneously injected with human HCC827-GR-T790M tumor cells and were divided into treatment groups (10 animals per group) after the tumors were established. […] Median tumor volume (TV) change in % were calculated at day 14, where the vehicle group was terminated and statistical analysis done with two way-RM ANOVA.

[3] = test system: human DFCI081 NSCLC xenograft; settings: background; due to the activated c-Met pathway; cited from earlier work

| SMILES | day at which complete tumor regression/response was observed in all mice ([1]; 100 mg/kg each agent orally daily) | tumor response class [1] | median tumor volume (TV) change [1] | tumor response class [2] | median tumor volume change ([2]; s.c. HCC827-GR-T790M tumors) | resistance of the model to EGFR inhibitor [3] |
| --- | --- | --- | --- | --- | --- | --- |
| CN1CCC(COc2cnc(-c3cccc(Cn4nc(-c5cccc(C#N)c5)ccc4=O)c3)nc2)CC1.Cl.O [3-(1-{3-[5-(1-Methyl-piperidin-4-ylmethoxy)-pyrimidin-2-yl]-benzyl}-6-oxo-1,6-dihydro-pyridazin-3-yl)-benzonitrile hydrochloride hydrate] | 15 days | tumor regression | −100% | – | – | – |
| C=CC(=O)Nc1cccc(Nc2nc(Nc3ccc(N4CCN(C(C)=O)CC4)cc3OC)ncc2C(F)(F)F)c1 [N-[3-[[2-[4-(4-acetylpiperazin-1-yl)-2-methoxy-anilino]-5-(trifluoromethyl)-pyrimidin-4-yl]amino]phenyl]prop-2-enamide] | – | tumor progressed | 700% | tumors progressed | 81% | – |
| C#Cc1cccc(Nc2ncnc3cc(OCCOC)c(OCCOC)cc23)c1 [erlotinib] | – | – | – | – | – | resistant |
